Measurements as given in US20220233512A1, “INHIBITING AN IMMUNE RESPONSE MEDIATED BY ONE OR MORE OF TLR2, RAGE, CCR5, CXCR4 AND CD4” (priority 2020, published 2022).

Target: T1, mu opiate receptor (MOR) (Rattus norvegicus, UniProt P33535)
T1 construct: from tissue; host or cells: striatum (membrane preparation)
Experiment: MOR agonist activity using [35S]GTPgS binding assay in striatal membranes
Assay type: biochemical
Conditions: Series C-2 table
Procedure: To assess the mu opiate receptor (MOR) agonist activity of positive compounds from the FLNA screening, compounds were tested in a [^35S]GTPgS binding assay using striatal membranes. […] This assay measures a functional consequence of receptor occupancy at one of the earliest receptor-mediated events. The assay permits for traditional pharmacological parameters of potency, efficacy and antagonist affinity, with the advantage that agonist measures are not subjected to amplification or other modulation that may occur when analyzing parameters further downstream of the receptor.
Thus, striatal tissue was homogenized in 10 volumes of ice cold 25 mM HEPES buffer, pH 7.4, which contained 1 mM EGTA, 100 mM sucrose, 50 mg/ml leupeptin, 0.04 mM PMSF, 2 mg/ml soybean trypsin inhibitor and 0.2% 2-mercaptoethanol. The homogenates were centrifuged at 800×g for 5 minutes and the supernatants were centrifuged at 49,000×g for 20 minutes. The resulting pellets were suspended in 10 volume of reaction buffer, which contained 25 mM HEPES, pH 7.5, 100 mM NaCl, 50 mg/ml leupeptin, 2 mg/ml soybean trypsin inhibitor, 0.04 mM PMSF and 0.02% […].
The resultant striatal membrane preparation (200 mg) was admixed and maintained (incubated) at 30° C. for 5 minutes in reaction buffer as above that additionally contained 1 mM MgCl2 and 0.5 nM [^35S]GTPgS (0.1 mCi/assay, PerkinElmer Life and Analytical Sciences) in a total volume of 250 ml and continued for 5 minutes in the absence or presence of 0.1-10 mM of an assayed compound of interest. The reaction was terminated by dilution with 750 ml of ice-cold reaction buffer that contained 20 mM MgCl2 and 1 mM EGTA and immediate centrifugation at 16,000×g for 5 minutes.
The resulting pellet was solubilized by sonicating for 10 seconds in 0.5 ml of immunoprecipitation buffer containing 0.5% digitonin, 0.2% sodium cholate and 0.5% NP-40. Normal rabbit serum (1 ml) was added to 1 ml of lysate and incubated at 25° C. for 30 minutes. Nonspecific immune complexes were removed by incubation with 25 ml of protein A/G-conjugated agarose beads at 25° C. for 30 minutes followed by centrifugation at 5,000×g at 4° C. for 5 minutes. The supernatant was divided and separately incubated at 25° C. for 30 minutes with antibodies raised against Gao proteins (1:1,000 dilutions).
The immunocomplexes so formed were collected by incubation at 25° C. for 30 minutes with 40 ml of agarose-conjugated protein A/G beads and centrifugation at 5,000×g at 4° C. for 5 minutes. The pellet was washed and suspended in buffer containing 50 mM Tris-HCl, pH 8.0, and 1% NP-40. The radioactivity in the suspension was determined by liquid scintillation spectrometry. […] DAMGO (1 or 10 mM) was used as a positive control.

T1 sequence (P33535 whole entry): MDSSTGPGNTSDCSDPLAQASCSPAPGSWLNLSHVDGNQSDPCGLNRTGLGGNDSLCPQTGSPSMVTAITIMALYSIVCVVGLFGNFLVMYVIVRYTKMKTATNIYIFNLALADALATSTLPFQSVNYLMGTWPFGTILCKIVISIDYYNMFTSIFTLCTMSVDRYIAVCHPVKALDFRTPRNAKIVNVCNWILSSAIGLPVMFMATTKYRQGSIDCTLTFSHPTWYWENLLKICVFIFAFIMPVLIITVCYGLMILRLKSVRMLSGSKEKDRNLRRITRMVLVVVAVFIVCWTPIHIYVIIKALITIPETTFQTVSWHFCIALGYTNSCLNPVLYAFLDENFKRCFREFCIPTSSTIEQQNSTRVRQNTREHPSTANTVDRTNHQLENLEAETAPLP

C=CCN1CCC2(CC1)OCCN2S(=O)(=O)c1ccc(C(C)=O)cc1 [Compound C0096M]
MOR agonist activity ([35S]GTPgS binding to Gao) (0.1 μM compound as agonist): 186.4%
MOR agonist activity ([35S]GTPgS binding to Gao) (1 μM + BFNA): 127.1%
MOR agonist activity ([35S]GTPgS binding to Gao) (1 μM compound as agonist): 328.9%

CCOC(=O)CN1CCC2(CC1)OCCN2S(=O)(=O)c1ccc(C(C)=O)cc1 [Compound C0099M]
MOR agonist activity ([35S]GTPgS binding to Gao) (0.1 μM compound as agonist): 157.2%
MOR agonist activity ([35S]GTPgS binding to Gao) (1 μM + BFNA): 114.7%
MOR agonist activity ([35S]GTPgS binding to Gao) (1 μM compound as agonist): 195.7%

CC(=O)c1ccc(S(=O)(=O)N2CCOC23CCN(CC(=O)O)CC3)cc1 [Compound C0100M]
MOR agonist activity ([35S]GTPgS binding to Gao) (0.1 μM compound as agonist): 173.6%
MOR agonist activity ([35S]GTPgS binding to Gao) (1 μM + BFNA): 195.6%
MOR agonist activity ([35S]GTPgS binding to Gao) (1 μM compound as agonist): 245.9%

CCCCN1CCC2(CC1)OCCN2S(=O)(=O)c1ccc(C(C)=O)cc1 [Compound C0101M]
MOR agonist activity ([35S]GTPgS binding to Gao) (0.1 μM compound as agonist): 138.2%
MOR agonist activity ([35S]GTPgS binding to Gao) (1 μM + BFNA): 174.8%
MOR agonist activity ([35S]GTPgS binding to Gao) (1 μM compound as agonist): 274.3%

CCCCN1CCC2(CC1)OCCN2S(=O)(=O)c1ccc(OC)cc1 [Compound C0102M]
MOR agonist activity ([35S]GTPgS binding to Gao) (0.1 μM compound as agonist): 131.8%
MOR agonist activity ([35S]GTPgS binding to Gao) (1 μM + BFNA): 150.4%
MOR agonist activity ([35S]GTPgS binding to Gao) (1 μM compound as agonist): 272.0%

CN1CCC2(CC1)NC(=O)CN2Cc1ccccc1 [Compound C0104M]
MOR agonist activity ([35S]GTPgS binding to Gao) (0.1 μM compound as agonist): 188.2%
MOR agonist activity ([35S]GTPgS binding to Gao) (1 μM + BFNA): 143.8%
MOR agonist activity ([35S]GTPgS binding to Gao) (1 μM compound as agonist): 238.9%

CN1CCC2(CC1)OCCN2S(=O)(=O)c1ccc(S(C)(=O)=O)cc1 [Compound C0106M]
MOR agonist activity ([35S]GTPgS binding to Gao) (0.1 μM compound as agonist): 171.8%
MOR agonist activity ([35S]GTPgS binding to Gao) (1 μM + BFNA): 117.2%
MOR agonist activity ([35S]GTPgS binding to Gao) (1 μM compound as agonist): 240.7%

CC(=O)c1ccc(S(=O)(=O)N2CC(CN(C)C)OC23CCN(C)CC3)cc1 (stereo not drawn) [Compound C0108M]
MOR agonist activity ([35S]GTPgS binding to Gao) (0.1 μM compound as agonist): 205.6%
MOR agonist activity ([35S]GTPgS binding to Gao) (1 μM + BFNA): 76.9%
MOR agonist activity ([35S]GTPgS binding to Gao) (1 μM compound as agonist): 258.5%

O=C1CNC2(CCNCC2)N1Cc1ccccc1 [Compound C0114M]
MOR agonist activity ([35S]GTPgS binding to Gao) (0.1 μM compound as agonist): 114.0%
MOR agonist activity ([35S]GTPgS binding to Gao) (1 μM + BFNA): 35.9%
MOR agonist activity ([35S]GTPgS binding to Gao) (1 μM compound as agonist): 144.3%

O=C1CN(Cc2ccccc2)C2(CCNCC2)N1 [Compound C0115M]
MOR agonist activity ([35S]GTPgS binding to Gao) (0.1 μM compound as agonist): 177.2%
MOR agonist activity ([35S]GTPgS binding to Gao) (1 μM + BFNA): 118.4%
MOR agonist activity ([35S]GTPgS binding to Gao) (1 μM compound as agonist): 226.8%

CS(=O)(=O)c1ccc(S(=O)(=O)N2CCOC23CCNCC3)cc1 [Compound C0116M]
MOR agonist activity ([35S]GTPgS binding to Gao) (0.1 μM compound as agonist): 258.4%
MOR agonist activity ([35S]GTPgS binding to Gao) (1 μM + BFNA): 152.0%
MOR agonist activity ([35S]GTPgS binding to Gao) (1 μM compound as agonist): 302.8%

CC(=O)c1ccc(S(=O)(=O)N2CC(CN(C)C)OC23CCNCC3)cc1 (stereo not drawn) [Compound C0118M]
MOR agonist activity ([35S]GTPgS binding to Gao) (0.1 μM compound as agonist): 166.2%
MOR agonist activity ([35S]GTPgS binding to Gao) (1 μM + BFNA): 79.2%
MOR agonist activity ([35S]GTPgS binding to Gao) (1 μM compound as agonist): 261.5%

CC(=O)c1ccc(S(=O)(=O)N2C(Cc3c[nH]cn3)C(=O)NC23CCNCC3)cc1 (stereo not drawn) [Compound C0119M]
MOR agonist activity ([35S]GTPgS binding to Gao) (0.1 μM compound as agonist): 105.7%
MOR agonist activity ([35S]GTPgS binding to Gao) (1 μM + BFNA): 35.1%
MOR agonist activity ([35S]GTPgS binding to Gao) (1 μM compound as agonist): 167.8%

O=C1CNC2(CCN(CC3CC3)CC2)N1Cc1ccccc1 [Compound C0124M]
MOR agonist activity ([35S]GTPgS binding to Gao) (0.1 μM compound as agonist): 252.0%
MOR agonist activity ([35S]GTPgS binding to Gao) (1 μM + BFNA): 61.4%
MOR agonist activity ([35S]GTPgS binding to Gao) (1 μM compound as agonist): 305.1%

O=C1CN(Cc2ccccc2)C2(CCN(CC3CC3)CC2)N1 [Compound C0125M]
MOR agonist activity ([35S]GTPgS binding to Gao) (0.1 μM compound as agonist): 168.6%
MOR agonist activity ([35S]GTPgS binding to Gao) (1 μM + BFNA): 159.7%
MOR agonist activity ([35S]GTPgS binding to Gao) (1 μM compound as agonist): 195.2%
